Literature values as cited in patent publication US20100323998A1, “TOPICAL COMPOSITION CONTAINING THE COMBINATION OF MUPIROCIN AND BECLOMETHASONE” (Glenmark Pharmaceuticals Ltd., priority 2007, published 2010).

Tested on: Gram-positive and Gram-negative bacteria
Settings: in vitro

Compound: C/C(=C\C(=O)OCCCCCCCCC(=O)O)C[C@@H]1OCC(C[C@@H]2O[C@H]2[C@@H](C)[C@H](C)O)[C@@H](O)[C@H]1O (stereo partly drawn) [Mupirocin, (E)-(2S,3R,4R,5S)-5-[(2S,3S,4S,5S)-2,3-Epoxy-5-hydroxy-4-methylhexyl]tetrahydro-3,4-dihydroxy-β-methyl-2H-pyran-2-crotonic acid, ester with 9-hydroxynonanoic acid]
- Growth of Gram-positive and Gram-negative bacteria: inhibits the growth
